Test results reported in patent US4474811A, “Anti-inflammatory ophthalmic solution and process for preparing the same” (Kakenyaku Kako Co., Ltd., priority 1981, dated 1984).
Structures can show the parent of a compound that is named as a salt. Where two headings read alike, the source gives them in different places.

Experiments:
[1] = test system: carrageenan-induced edema; conditions: administered orally, rat; cited from earlier work
[2] = cited from earlier work
[3] = test system: quinine or PGs system; conditions: compared with known nonsteroidal anti-inflammatory agents; cited from earlier work
[4] = test system: intraocular pressure elevation and aqueous humor protein increase; conditions: rabbits; arachidonic acid; suspensions, FP as aqueous solution; Invest. Ophthalmol., 15(10), 841 to 844 (1976); cited from earlier work
[5] = test system: biosynthesis of PGs from arachidonic acid; conditions: lung homogenate of guinea pig; cited from earlier work
[6] = test system: human eye; assay: Irritation of FP to the human eye (general statement); type: in vivo; conditions: concentration of FP above 0.2%
Source text: Under the coexistence with β-CD or γ-CD, the solubility of FP in a high concentration can be attained and the decrement of the above-mentioned irritation can be attained even by the use of FP in a high concentration. Moreover, an ophthalmic solution containing FP stable for a long term is obtained by coexisting FP with β-CD or γ-CD.

[7] = cited from earlier work; remark: listed apart in the source
[8] = test system: eye of the rabbits (pupillary diameter); assay: Mydriasis effect of atropine (Test Example 4); type: in vivo, rabbit; conditions: 1 w/v % atropine sulfate, 40 μl.
Procedure: Mydriasis induced by atropine instillation was first observed, assuming that a mydriasis treatment is usually performed prior to operation.
The test was performed using 5 rabbits, and a drop (40 μl.) of a 1 w/v % solution of atropine sulfate in physiological salt solution was instilled to the right eye of the rabbits, and the change of status of the eye with lapse of time was observed by the photographic determination of pupillary diameter. The pupillary diameter difference [(the pupillary diameter at each time after instillation)--(the pupillary diameter before instillation)] and rate of mydriasis (%), which was calculated according to the following formula, were determined. [formula] The pupillary diameter difference and the rate of mydriasis in FIG. 5 are the mean values as to 5 rabbits.

[9] = oil preparation; cited from earlier work
[10] = test system: eye ball; conditions: oil preparation, topical instillation to the eye ball; cited from earlier work
[11] = test system: blood-aqueous barrier; conditions: adding IM instillation vs adding no IM instillation; cited from earlier work
[12] = test system: intraocular pressure; conditions: subconjunctival injection, cited from earlier work

CC(C(=O)O)c1ccc(-c2ccccc2)c(F)c1 (centres unmarked) [FP, 2-(2-fluoro-4-biphenylyl)propionic acid]
anti-inflammatory effect relative to aspirin [1]: 250 times
anti-inflammatory effect relative to indomethacin [1]: 14 times
solubility [2]: limited solubility
strength of inhibitory effect [3]: the strongest among known nonsteroidal anti-inflammatory agents
inhibitory effect on the intraocular pressure elevation and aqueous humor protein increase [4]: particularly strong inhibitory effects
inhibitory effect on biosynthesis of PGs relative to aspirin [5]: 2,280 times
inhibitory effect on biosynthesis of PGs relative to indomethacin [5]: 10 times
irritation to the human eye [6]: enhanced

CC(=O)Oc1ccccc1C(=O)O [aspirin]
side effect ([7]; in vivo, po): digestive trouble

CN1[C@@H]2CC[C@H]1C[C@@H](OC(=O)C(CO)c1ccccc1)C2 (some centres unmarked) [atropine, atropine sulfate]
time to maximum pupillary diameter [8]: one
change in the maximum pupillary diameter ([8]; even after 6 hours from the instillation): no change

COc1ccc2c(c1)c(CC(=O)O)c(C)n2C(=O)c1ccc(Cl)cc1 [indomethacin]
stability of the preparation [9]: poor
feeling in use [10]: bad
side effect ([7]; oral administration in large amounts): digestive trouble
inhibitory effect on the intraocular pressure elevation and aqueous humor protein increase [4]: particularly strong inhibitory effects
inhibition on increase of permeability of blood-aqueous barrier after operation, relative to no IM instillation [11]: about 3 times

COc1ccc(-c2[nH]c3ccccc3c2-c2ccc(OC)cc2)cc1 [indoxole]
inhibitory effect on the intraocular pressure elevation and aqueous humor protein increase [4]: particularly strong inhibitory effects

Cc1ccc(Cl)c(Nc2ccccc2C(=O)O)c1Cl [meclofenamic acid]
inhibitory effect on the intraocular pressure elevation and aqueous humor protein increase [4]: particularly strong inhibitory effects

polyphloretin phosphate
effect on intraocular pressure ([12]; glaucomatocyclitic crisis): effect of decreasing the intraocular pressure
pain [12]: causes pain to a patient and eye pain or smart feeling is strong
